Columns and labels:
Type in all cases: in vivo, human
[1] = Safety (adverse events, IOP), idiopathic hypotrichosis subpopulation
Method: Safety measures included adverse events (AEs), ophthalmic examination (ophthalmoscopy [dilated], biomicroscopy, IOP, iris color assessment, and BCVA). AEs were monitored throughout the study by the investigator.
The 12-month data were the primary focus of the safety evaluation. Safety data were summarized with descriptive statistics (n, or frequency distributions [counts or percentages]). Biomicroscopic examinations and assessments of iris color, IOP, and BCVA were performed for each subject at screening/baseline and months 1, 2, 4, 6, 8, and 12 (or early termination prior to month 12); ophthalmoscopic examinations (dilated) were performed at screening/baseline and months 6 and 12 (or early termination prior to month 12). Two IOP measurements were taken for each eye at each visit; a third measurement was taken if the difference between the first 2 measurements was more than 2 mm Hg. The average or median IOP was determined in the event that 2 or 3 measurements were made, respectively. The IOP value analyzed at each visit was the average IOP of the subject's 2 eyes. Change and percent change from baseline in IOP were summarized by descriptive statistics. Between-group comparison will be performed using the 1-way analysis of variance.

[2] = test system: eyelashes of subjects with chemotherapy-induced hypotrichosis; assay: Digital image analysis of upper eyelash length, thickness, darkness, chemotherapy-induced hypotrichosis; details: for Upper eyelash length, median percent change from baseline / Upper eyelash thickness, median percent change from baseline / Upper eyelash darkness, median percent change from baseline: chemotherapy-induced; for Upper eyelash darkness, median percent change from baseline / Mean change from baseline in eyelash darkness: negative = darker
Method: Efficacy was also assessed using more conservative criteria of 2-grade improvement in GEA. […] In addition to the investigator global assessment (GEA) and subjects own assessment (ESQ), the eyelash length, thickness/fullness and darkness were measures using digital image analysis. Secondary efficacy measures were based on digital image analysis (DIA) of eyelash characteristics: upper eyelash length (millimeters [mm]), thickness (mm^2), and darkness (intensity units). For darkness, a negative value in terms of change from baseline indicated darker eyelashes. Upper eyelash characteristics of length, thickness, and darkness were determined by a validated DIA method. The reliability and reproducibility of DIA have been verified within the acceptance criteria of 0.05% or less of mean coefficient of variance. The principal variables for the secondary efficacy assessments are: change from baseline in upper eyelash length (mm), average progressive eyelash thickness (mm^2), and eyelash darkness (intensity units) at months 4, 6, 10, and 12 or early termination. Descriptive statistics of the raw value at baseline and percent change from baseline at follow-up visits were summarized by treatment group for each principal measure of the 3 secondary variables of eyelash characteristics. Between-group comparisons were performed using a van Elteren test stratified by hypotrichosis etiology.

[3] = test system: eyelashes of subjects with idiopathic hypotrichosis; assay: Digital image analysis of upper eyelash length, thickness, darkness, idiopathic hypotrichosis; details: for Upper eyelash length, mean % change from baseline / Upper eyelash length, mean value / Upper eyelash thickness, mean % change from baseline / Upper eyelash thickness, mean value / Upper eyelash darkness, mean % change from baseline / Upper eyelash darkness, mean value: Bim/Veh group (n = 60); for Upper eyelash darkness, mean % change from baseline / Upper eyelash darkness, mean percent change from baseline: negative = darker; for Upper eyelash darkness, mean value: scale 0 black to 255 white
Method: Secondary efficacy measures were based on digital image analysis (DIA) of eyelash characteristics: upper eyelash length (millimeters [mm]), thickness (mm^2), and darkness (intensity units). For darkness, a negative value in terms of change from baseline indicated darker eyelashes. Upper eyelash characteristics of length, thickness, and darkness were determined by a validated DIA method. The reliability and reproducibility of DIA have been verified within the acceptance criteria of 0.05% or less of mean coefficient of variance. The principal variables for the secondary efficacy assessments are: change from baseline in upper eyelash length (mm), average progressive eyelash thickness (mm^2), and eyelash darkness (intensity units) at months 4, 6, 10, and 12 or early termination. Descriptive statistics of the raw value at baseline and percent change from baseline at follow-up visits were summarized by treatment group for each principal measure of the 3 secondary variables of eyelash characteristics. Between-group comparisons were performed using a van Elteren test stratified by hypotrichosis etiology.

[4] = postchemotherapy, Month 4, bimatoprost from day 1
[5] = postchemotherapy, Month 4, bimatoprost from day 1, listed as Bim/Bim
[6] = postchemotherapy, Month 6, bimatoprost from day 1
[7] = postchemotherapy, Month 6, bimatoprost from day 1, listed as Bim/Bim
[8] = postchemotherapy, Month 6, bimatoprost from day 1, listed as bimatoprost
[9] = postchemotherapy, Month 10, Bim/Bim
[10] = postchemotherapy, Month 10, Veh/Bim (bimatoprost since month 6)
[11] = postchemotherapy, Month 12, Bim/Bim
[12] = postchemotherapy, Month 12, Veh/Bim (bimatoprost since month 6)
[13] = postchemotherapy, Month 12, bimatoprost up to 12 months
[14] = Month 10 (vehicle since month 6)
[15] = Month 12 (vehicle since month 6)
[16] = Month 4, all bimatoprost TP1 (n = 179)
[17] = Month 4, all bimatoprost TP1 (n = 179), listed as Bimatoprost
[18] = Month 6, all bimatoprost TP1 (n = 179)
[19] = Month 6, group treated up to 12 months with bimatoprost
[20] = Month 12, group treated up to 12 months with bimatoprost

CCNC(=O)CCC/C=C\C[C@@H]1[C@@H](/C=C/[C@@H](O)CCc2ccccc2)[C@H](O)C[C@@H]1O [Bim 0.03%, bimatoprost]
Conjunctival hyperaemia ([1]; 0 to 6 Months (N = 118)): 5.9%
Erythema of eyelid ([1]; 0 to 6 Months (N = 118)): 1.7%
Eye pruritus ([1]; 0 to 6 Months (N = 118)): 0.8%
Eyelids pruritus ([1]; 0 to 6 Months (N = 118)): 5.1%
Punctate keratitis ([1]; 0 to 6 Months (N = 118)): 2.5%
Skin hyperpigmentation ([1]; 0 to 6 Months (N = 118)): 0.0%
Conjunctival hyperaemia ([1]; 0 to 12 Months (N = 118)): 8.5%
Erythema of eyelid ([1]; 0 to 12 Months (N = 118)): 5.1%
Eye pruritus ([1]; 0 to 12 Months (N = 118)): 0.8%
Eyelids pruritus ([1]; 0 to 12 Months (N = 118)): 5.9%
Punctate keratitis ([1]; 0 to 12 Months (N = 118)): 2.5%
Skin hyperpigmentation ([1]; 0 to 12 Months (N = 118)): 1.7%
Conjunctival hyperaemia ([1]; 6 to 12 Months (N = 106)): 3.8%
Erythema of eyelid ([1]; 6 to 12 Months (N = 106)): 4.7%
Eye pruritus ([1]; 6 to 12 Months (N = 106)): 0.0%
Eyelids pruritus ([1]; 6 to 12 Months (N = 106)): 0.9%
Punctate keratitis ([1]; 6 to 12 Months (N = 106)): 0.0%
Skin hyperpigmentation ([1]; 6 to 12 Months (N = 106)): 1.9%
Mean change from baseline in IOP ([1]; month 4, IOP measured in mm Hg): −1.17
Upper eyelash length, median percent change from baseline ([2]; Month 4): 28.50%
Upper eyelash thickness, median percent change from baseline ([2]; Month 4): 180.10%
Upper eyelash length, median percent change from baseline ([2]; Month 4, listed as Bimatoprost): 28.5 (94) %
Upper eyelash thickness, median percent change from baseline ([2]; Month 4, listed as Bimatoprost): 180.1 (64) %
Upper eyelash darkness, median percent change from baseline ([2]; Month 4): −14.40%
Upper eyelash darkness, median percent change from baseline ([2]; Month 4, listed as Bimatoprost): −14.4 (65) %
Upper eyelash length, median percent change from baseline ([2]; Month 6, listed as Bimatoprost): 37.8 (94) %
Upper eyelash thickness, median percent change from baseline ([2]; Month 6, listed as Bimatoprost): 245.9 (64) %
Upper eyelash length, median percent change from baseline ([2]; Month 6, listed as bimatoprost): 37.84%
Upper eyelash thickness, median percent change from baseline ([2]; Month 6, listed as bimatoprost): 245%
Upper eyelash darkness, median percent change from baseline ([2]; Month 6): −16.3 (65) %
Mean change from baseline in average progressive eyelash thickness [2, 4]: 0.67 mm^2
Mean change from baseline in eyelash length [2, 4]: 1.48 mm
Mean change from baseline in average progressive eyelash thickness [2, 5]: 0.67 ± 0.514 mm^2
Mean change from baseline in eyelash length [2, 5]: 1.48 ± 1.391 mm
Mean change from baseline in eyelash darkness ([2]; postchemotherapy, Month 4): −22.48
Eyelash length, mean percent increase from baseline ([2]; postchemotherapy, Month 6): 48.08%
Eyelash thickness, mean percent increase from baseline ([2]; postchemotherapy, Month 6): 428%
Mean change from baseline in average progressive eyelash thickness [2, 6]: 0.83 mm^2
Mean change from baseline in eyelash length [2, 6]: 1.99 mm
Mean change from baseline in average progressive eyelash thickness [2, 7]: 0.83 ± 0.576 mm^2
Mean change from baseline in eyelash length [2, 7]: 1.99 ± 1.557 mm
Mean change from baseline in average progressive eyelash thickness [2, 8]: 0.83 mm^2
Mean change from baseline in eyelash length [2, 8]: 1.99 mm
Mean change from baseline in eyelash darkness ([2]; postchemotherapy, Month 6): −26.46
Mean change from baseline in average progressive eyelash thickness [2, 9]: 0.88 ± 0.516 mm^2
Mean change from baseline in eyelash length [2, 9]: 2.14 ± 1.455 mm
Mean change from baseline in average progressive eyelash thickness [2, 10]: 0.63 ± 1.042 mm^2
Mean change from baseline in eyelash length [2, 10]: 2.27 ± 1.439 mm
Mean change from baseline in average progressive eyelash thickness [2, 11]: 0.85 ± 0.575 mm^2
Mean change from baseline in eyelash length [2, 11]: 2.01 ± 1.504 mm
Mean change from baseline in average progressive eyelash thickness [2, 12]: 0.58 ± 1.085 mm^2
Mean change from baseline in eyelash length [2, 12]: 2.07 ± 1.442 mm
Eyelash length, mean percent increase from baseline [2, 13]: 49.88%
Eyelash length, median percent increase from baseline [2, 13]: 39.08%
Eyelash thickness, mean percent increase from baseline [2, 13]: 478%
Eyelash thickness, median percent increase from baseline [2, 13]: 212%
Upper eyelash length, mean % change from baseline ([3]; Month 4 (on bimatoprost)): 21.01%
Upper eyelash length, mean value ([3]; Month 4 (on bimatoprost)): 6.8 mm
Upper eyelash thickness, mean % change from baseline ([3]; Month 4 (on bimatoprost)): 73.7%
Upper eyelash thickness, mean value ([3]; Month 4 (on bimatoprost)): 1.2 mm^2
Upper eyelash darkness, mean % change from baseline ([3]; Month 4 (on bimatoprost)): −16.01%
Upper eyelash darkness, mean value ([3]; Month 4 (on bimatoprost)): 126.3 intensity units
Upper eyelash length, mean % change from baseline ([3]; Month 6 (on bimatoprost)): 25.70%
Upper eyelash length, mean value ([3]; Month 6 (on bimatoprost)): 7.1 mm
Upper eyelash thickness, mean % change from baseline ([3]; Month 6 (on bimatoprost)): 79.9%
Upper eyelash thickness, mean value ([3]; Month 6 (on bimatoprost)): 1.2 mm^2
Upper eyelash darkness, mean % change from baseline ([3]; Month 6 (on bimatoprost)): −14.89%
Upper eyelash darkness, mean value ([3]; Month 6 (on bimatoprost)): 128.0 intensity units
Upper eyelash length, mean % change from baseline [3, 14]: 6.46%
Upper eyelash length, mean value [3, 14]: 6.0 mm
Upper eyelash thickness, mean % change from baseline [3, 14]: 13.0%
Upper eyelash thickness, mean value [3, 14]: 0.8 mm^2
Upper eyelash darkness, mean % change from baseline [3, 14]: −3.97%
Upper eyelash darkness, mean value [3, 14]: 143.7 intensity units
Upper eyelash length, mean % change from baseline [3, 15]: 4.62%
Upper eyelash length, mean value [3, 15]: 5.9 mm
Upper eyelash thickness, mean % change from baseline [3, 15]: 15.9%
Upper eyelash thickness, mean value [3, 15]: 0.9 mm^2
Upper eyelash darkness, mean % change from baseline [3, 15]: −4.29%
Upper eyelash darkness, mean value [3, 15]: 143.6 intensity units
Upper eyelash length, mean percent change from baseline [3, 16]: 22.90%
Upper eyelash thickness, mean percent change from baseline [3, 16]: 95.90%
Upper eyelash length, mean percent change from baseline [3, 17]: 22.9 (177) %
Upper eyelash thickness, mean percent change from baseline [3, 17]: 95.9 (150) %
Upper eyelash darkness, mean percent change from baseline [3, 16]: −15.70%
Upper eyelash darkness, mean percent change from baseline [3, 17]: −15.7 (150) %
Upper eyelash length, mean percent change from baseline [3, 18]: 26.0 (177) %
Upper eyelash thickness, mean percent change from baseline [3, 18]: 91.4 (150) %
Upper eyelash darkness, mean percent change from baseline [3, 18]: −14.1 (150) %
Eyelash length, mean percent increase from baseline [3, 19]: 26.17%
Eyelash length, median percent increase from baseline [3, 19]: 22.4%
Increase in mean eyelash length from baseline [3, 19]: 1.44 mm
Eyelash length, mean percent increase from baseline [3, 20]: 25.86%
Eyelash length, median percent increase from baseline [3, 20]: 22.63%
